Source: patent US8058270B2, “Dihydropteridinones for the treatment of cancer diseases” (Boehringer Ingelheim International GmbH, priority 2004, dated 2011)

Columns and labels:
[1] = test system: cultivated human tumour cells; test: Alamar Blue cytotoxicity assay (general); type: cell-based; settings: summary in words, see Table 1
Excerpt: Alamar Blue™ Cytotoxicity Assays
The Alamar Blue™ assay is designed to measure quantitatively the proliferation of cells by incorporating a fluorometric/colorimetric growth indicator based on the detection of metabolic activity.
Cell culture: The various human tumor cell lines can be purchased from American Type Culture Collection (ATCC) or the German Collection of Microorganisms and Cell Cultures (DSMZ) and cultivated in 75 to 175 cm^2 tissue culture flasks in the medium indicated by the supplier. The cells are maintained at 37° C. and 5% CO2 in a humidified atmosphere, with an appropriate split ratio. Logarithmically growing cells are used for the assays.
Assay conditions: On day one of the experiment 1000-4000 cells (in 100 μl medium) are seeded into each well of a sterile 96-well plate. The number of cells used is dependent on the growth rate and size of the cells. Eight wells on each plate are left free to accommodate for controls (4 wells for medium plus reduced AlamarBlue™, and 4 wells for medium plus oxidized AlamarBlue™). The plates are kept in the incubator overnight. On day two of the experiment serial dilutions of the inhibitor are prepared in medium containing 0.1% DMSO. […] After 4-5 h of incubation, the plates are measured in a fluorescence spectrophotometer (excitation 530 nm, emission 590 nm, slits 15, integrate time 0.1). […]

[2] = test system: cultivated human tumour cells; test: FACS analysis on PI stained tumor cells, cell cycle progression (general); type: cell-based; settings: summary in words, see Table 1
Excerpt: FACS Analysis on PI Stained Tumor Cells
Propidium iodine (PI) binds stoichiometrically to double stranded DNA and thus is a suitable agent to measure the DNA content of cells in order to determine the percentage of cells residing in various cell cycle stages (G0/1-, S- and G2/M-phases), whereas cells in G0 or G1 phase do have a diploid DNA content (2N) cells in G2 and M-phase (mitosis) do have a doubled (4N) DNA content.
Cell culture: The various human tumor cell lines can be purchased from American Type Culture Collection (ATCC) or the German Collection of Microorganisms and Cell Cultures (DSMZ) and cultivated in 75 to 175 cm^2 tissue culture flasks in the medium indicated by the supplier. […]
Data analysis: Analysis of the DNA content of the cells can be performed using a FACS analyzer equipped with an argon laser (500 mW, emission 488 nm) and the use of the DNA Cell Quest analysis software (Beckton Dickinson). The logarithmic PI fluorescence is determined in a band-pass filter (Beckton Dickinson 585/43). Quantification of the cell populations residing in the individual cell cycle phases (e.g. G0/G1-, S- and G2/M-phases) is done with the ModFit LT software package from Becton Dickinson. An EC50 value for cells arrested at the G2/M-phase of the cell cycle is calculated by using a sigmoidal curve analysis program (Graph Pad Prism version 3.03).

In the case of CC[C@@H]1C(=O)N(C)c2cnc(Nc3ccc(C(=O)NC4CCN(C)CC4)cc3OC)nc2N1C1CCCC1 [Example 46, 4-[[(7R)-8-cyclopentyl-7-ethyl-5,6,7,8-tetrahydro-5-methyl-6-oxo-2-pteridinyl]amino]-3-methoxy-N-(1-methyl-4-piperidinyl)-benzamide], the “activity in cytotoxicity tests on cultivated human tumour cells” value [1] is reported as “good to very good activity” and the “inhibitory effect on cell cycle progression by FACS analysis” value [2] is reported as “good to very good activity”.
